Measurements as given in US11787825B2 (priority 2021, dated 2023).
In brackets after ≈: the same amount, converted by molar mass. Like-named read-outs stand apart in the source and are kept apart here. Marks after values point to notes of the source that are not given here.

Key:
[1] = Beagle, in vivo, po; for Dog F % (suspension): pH 2
physchem = conditions: 25 °C, thermodynamic from solid
[2] = 0.1N HCL, 1.0% DMSO, 24-hour incubation at ambient temperature, maximum theoretical compound concentration 100 μM
[3] = 1×PBS buffer (pH 7.4), 1.0% DMSO, 24-hour incubation at ambient temperature, maximum theoretical compound concentration 100 μM
[4] = fasted state simulated intestinal fluid (FaSSIF), fassif
[5] = fed state simulated intestinal fluid (FeSSIF), fessif

Cc1cc(CC(=O)N[C@@H](CC(=O)O)C(=O)O)c(C(C)(C)CC(=O)N(c2nn(CC(F)(F)F)c3c(-c4ccc(C#CC(C)(C)S(C)(=O)=O)nc4[C@H](Cc4cc(F)cc(F)c4)NC(=O)Cn4nc(C(F)(F)F)c5c4C(F)(F)[C@@H]4C[C@H]54)ccc(Cl)c23)S(C)(=O)=O)c(OP(=O)(O)O)c1 [Compound 59, (2-(2-(4-(N-(4-chloro-7-(2-((S)-1-(2-((3bS,4aR)-5,5-difluoro-3-(trifluoromethyl)-3b,4,4a,5-tetrahydro-1H-cyclopropa[3,4]cyclopenta[1,2-c]pyrazolyl)acetamido)-2-(3,5-difluorophenyl)ethyl)-6-(3-methyl-3-(methylsulfonyl)but-1-ynyl)pyridin-3-yl)-1-(2,2,2-trifluoroethyl)-1H-indazol-3-yl)methylsulfonamido)-2-methyloxobutan-2-yl)-5-methyl-3-(phosphonooxy)phenyl)acetyl)-L-aspartic acid]
Dog F % (solution) [1]: 27 ^c %

CC(C)(C#Cc1ccc(-c2ccc(Cl)c3c(N(C(=O)/C=C/C(=O)N(CCC(=O)O)[C@@H](CC(=O)O)C(=O)O)S(C)(=O)=O)nn(CC(F)(F)F)c23)c([C@H](Cc2cc(F)cc(F)c2)NC(=O)Cn2nc(C(F)(F)F)c3c2C(F)(F)[C@@H]2C[C@H]32)n1)S(C)(=O)=O [Compound 3, N-(2-carboxyethyl)-N—((E)-4-(N-(4-chloro-7-(2-((S)-1-(2-((3bS,4aR)-5,5-difluoro-3-(trifluoromethyl)-3b,4,4a,5-tetrahydro-111-cyclopropa[3,4]cyclopenta[1,2-c]pyrazol-1-yl)acetamido)-2-(3,5-difluorophenyl)ethyl)-6-(3-methyl-3-(methylsulfonyl)but-1-yn-1-yl)pyridin-3-yl)-1-(2,2,2-trifluoroethyl)-1H-indazol-3-yl)methylsulfonamido)-4-oxobut-2-enoyl)-L-aspartic acid]
Dog F % (suspension) [1]: 10%

CC(C)(C#Cc1ccc(-c2ccc(Cl)c3c(N(C(=O)CCCN(C(=O)OCOP(=O)(O)O)[C@H](C(=O)O)c4ccccc4)S(C)(=O)=O)nn(CC(F)(F)F)c23)c([C@H](Cc2cc(F)cc(F)c2)NC(=O)Cn2nc(C(F)(F)F)c3c2C(F)(F)[C@@H]2C[C@H]32)n1)S(C)(=O)=O [Compound 40]
pH 2 solubility [2]: 1 μM
pH 7 solubility [3]: 100 μM
Dog F % (suspension) [1]: 5%

CC(C)(C#Cc1ccc(-c2ccc(Cl)c3c(N(C(=O)CNC(=O)OCOP(=O)(O)O)S(C)(=O)=O)nn(CC(F)(F)F)c23)c([C@H](Cc2cc(F)cc(F)c2)NC(=O)Cn2nc(C(F)(F)F)c3c2C(F)(F)[C@@H]2C[C@H]32)n1)S(C)(=O)=O [Compound 35, (phosphonooxy)methyl (2-(N-(4-chloro-7-(2-((S)-1-(2-((3bS,4aR)-5,5-difluoro-3-(trifluoromethyl)-3b,4,4a,5-tetrahydro-111-cyclopropa[3,4]cyclopenta[1,2-c]pyrazol-1-yl)acetamido)-2-(3,5-difluorophenyl)ethyl)-6-(3-methyl-3-(methylsulfonyl)but-1-yn-1-yl)pyridin-3-yl)-1-(2,2,2-trifluoroethyl)-1H-indazol-3-yl)methylsulfonamido)-2-oxoethyl)carbamate]
pH 2 solubility [2]: 2 μM
pH 7 solubility [3]: 48 μM
solubility (physchem; fassif): 883 µg/mL (≈ 749 µM)

Cc1cc(P(=O)(O)O)cc(OP(=O)(O)O)c1C(C)(C)CC(=O)N(c1nn(CC(F)(F)F)c2c(-c3ccc(C#CC(C)(C)S(C)(=O)=O)nc3[C@H](Cc3cc(F)cc(F)c3)NC(=O)Cn3nc(C(F)(F)F)c4c3C(F)(F)[C@@H]3C[C@H]43)ccc(Cl)c12)S(C)(=O)=O [Compound 57, (4-(4-(N-(4-Chloro-7-(2-((S)-1-(2-((3bS,4aR)-5,5-difluoro-3-(trifluoromethyl)-3b,4,4a,5-tetrahydro-111-cyclopropa[3,4]cyclopenta[1,2-c]pyrazol-1-yl)acetamido)-2-(3,5-difluorophenyl)ethyl)-6-(3-methyl-3-(methylsulfonyl)but-1-yn-1-yl)pyridin-3-yl)-1-(2,2,2-trifluoroethyl)-1H-indazol-3-yl)methylsulfonamido)-2-methyl-4-oxobutan-2-yl)-3-methyl-5-(phosphonooxy)phenyl)phosphonic acid]
pH 2 solubility (pH 2): 1/100 μM
pH 7 solubility (pH 7.4): 1/100 μM
solubility (physchem; fassif): 7300 µg/mL (≈ 5540 µM)

Cc1cc(CP(=O)(O)O)cc(OP(=O)(O)O)c1C(C)(C)CC(=O)N(c1nn(CC(F)(F)F)c2c(-c3ccc(C#CC(C)(C)S(C)(=O)=O)nc3[C@H](Cc3cc(F)cc(F)c3)NC(=O)Cn3nc(C(F)(F)F)c4c3C(F)(F)[C@@H]3C[C@H]43)ccc(Cl)c12)S(C)(=O)=O [Compound 56, (4-(4-(N-(4-chloro-7-(2-((S)-1-(2-((3bS,4aR)-5,5-difluoro-3-(trifluoromethyl)-3b,4,4a,5-tetrahydro-1H-cyclopropa[3,4]cyclopenta[1,2-c]pyrazolyl)acetamido)-2-(3,5-difluorophenyl)ethyl)-6-(3-methyl-3-(methylsulfonyl)but-1-ynyl)pyridin-3-yl)-1-(2,2,2-trifluoroethyl)-1H-indazol-3-yl)methylsulfonamido)-2-methyloxobutan-2-yl)-3-methyl-5-(phosphonooxy)benzyl)phosphonic acid]
pH 2 solubility (pH 2): 1/100 μM
pH 7 solubility (pH 7.4): 1/100 μM
solubility (physchem; fassif): > 10000 µg/mL

CC(C)(C#Cc1ccc(-c2ccc(Cl)c3c(N(C(=O)CCCOP(=O)(O)O)S(C)(=O)=O)nn(CC(F)(F)F)c23)c([C@H](Cc2cc(F)cc(F)c2)NC(=O)Cn2nc(C(F)(F)F)c3c2C(F)(F)[C@@H]2C[C@H]32)n1)S(C)(=O)=O [Compound 27, 4-(N-(4-chloro-7-(2-((S)-1-(2-((3bS,4aR)-5,5-difluoro-3-(trifluoromethyl)-3b,4,4a,5-tetrahydro-1H-cyclopropa[3,4]cyclopenta[1,2-c]pyrazol-1-yl)acetamido)-2-(3,5-difluorophenyl)ethyl)-6-(3-methyl-3-(methylsulfonyl)but-1-yn-1-yl)pyridin-3-yl)-1-(2,2,2-trifluoroethyl)-1H-indazol-3-yl)methylsulfonamido)-4-oxobutyl dihydrogen phosphate]
pH 2 solubility [2]: 1 μM
pH 7 solubility [3]: 26 μM
solubility (physchem; [4]): 190 µg/mL
solubility (physchem; [5]): 450 µg/mL

Cc1cc(C(=O)N[C@@H](CC(=O)O)C(=O)O)cc(OP(=O)(O)O)c1C(C)(C)CC(=O)N(c1nn(CC(F)(F)F)c2c(-c3ccc(C#CC(C)(C)S(C)(=O)=O)nc3[C@H](Cc3cc(F)cc(F)c3)NC(=O)Cn3nc(C(F)(F)F)c4c3C(F)(F)[C@@H]3C[C@H]43)ccc(Cl)c12)S(C)(=O)=O [Compound 65, (4-(4-(N-(4-chloro-7-(2-((S)-1-(2-((3bS,4aR)-5,5-difluoro-3-(trifluoromethyl)-3b,4,4a,5-tetrahydro-1H-cyclopropa[3,4]cyclopenta[1,2-c]pyrazol-1-yl)acetamido)-2-(3,5-difluorophenyl)ethyl)-6-(3-methyl-3-(methylsulfonyl)but-1-yn-1-yl)pyridin-3-yl)-1-(2,2,2-trifluoroethyl)-1H-indazol-3-yl)methylsulfonamido)-2-methyl-4-oxobutan-2-yl)-3-methyl-5-(phosphonooxy)benzoyl)-L-aspartic acid]
pH 2 solubility (pH 2): 7/68 μM
pH 7 solubility (pH 7.4): 7/68 μM
solubility (physchem; fassif): 1100 µg/mL (≈ 787 µM)

CC(C)(C#Cc1ccc(-c2ccc(Cl)c3c(NS(C)(=O)=O)nn(CC(F)(F)F)c23)c([C@H](Cc2cc(F)cc(F)c2)NC(=O)Cn2nc(C(F)(F)F)c3c2C(F)(F)[C@@H]2C[C@H]32)n1)S(C)(=O)=O [Intermediate 5, N—((S)-1-(3-(4-chloro-3-(methylsulfonamido)-1-(2,2,2-trifluoroethyl)-1H-indazol-7-yl)-6-(3-methyl-3-(methylsulfonyl)but-1-yn-1-yl)pyridin-2-yl)-2-(3,5-difluorophenyl)ethyl)-2-((3bS,4aR)-5,5-difluoro-3-(trifluoromethyl)-3b,4,4a,5-tetrahydro-1H-cyclopropa[3,4]cyclopenta[1,2-c]pyrazol-1-yl)acetamide, reference compound]
pH 2 solubility [2]: 0.11 μM
pH 7 solubility [3]: 0.32 μM
solubility (physchem; [4]): 4 µg/mL (≈ 4.13 µM)
solubility (physchem; [5]): 4.2 µg/mL (≈ 4.34 µM)

CC(C)(C#Cc1ccc(-c2ccc(Cl)c3c(N(C(=O)/C=C/C(=O)N[C@@H](CC(=O)O)C(=O)O)S(C)(=O)=O)nn(CC(F)(F)F)c23)c([C@H](Cc2cc(F)cc(F)c2)NC(=O)Cn2nc(C(F)(F)F)c3c2C(F)(F)[C@@H]2C[C@H]32)n1)S(C)(=O)=O [Compound 2, ((E)-4-(N-(4-chloro-7-(2-((S)-1-(2-((3bS,4aR)-5,5-difluoro-3-(trifluoromethyl)-3b,4,4a,5-tetrahydro-1H-cyclopropa[3,4]cyclopenta[1,2-c]pyrazolyl)acetamido)-2-(3,5-difluorophenyl)ethyl)-6-(3-methyl-3-(methylsulfonyl)but-1-ynyl)pyridin-3-yl)-1-(2,2,2-trifluoroethyl)-1H-indazol-3-yl)methylsulfonamido)-4-oxobutenoyl)-L-aspartic acid]
pH 7 solubility: 1/95 μM
pH 2 solubility (pH 2): 1/95 μM
solubility (physchem; [4]): 810 µg/mL (≈ 686 µM)
solubility (physchem; [5]): 655 µg/mL (≈ 554 µM)
